Reference: patent publication US10301270B2, “Compositions and methods for quadricyclane modification of biomolecules” (The Regents of the University of California, priority 2011, dated 2019)
“Also recorded” adds a separate entry of the source. Like-named read-outs stand apart in the source and are kept apart here.

Key:
Format in all cases: physicochemical
[1] = Photo-lability of complex 3 in ambient light (NMR, UV/Vis/NIR); conditions: CDCl3 solution in an NMR tube
Method: Complex 3 (2.2 mg) was dissolved in CDCl3 (˜0.75 mL) and placed in an NMR tube on the bench continually exposed to ambient light. NMR spectra were periodically obtained. The asterisks indicate the chemical shifts for 7-acetoxy norbornadiene (4). At the 36 h time point, there is a 1:1.1 ratio of 3:4 as judged by integration of the olefin peaks.
Using an NMR assay degradation of 3 over the first few hours is not evident. However, using UV/Vis/NIR spectroscopy, which has greater sensitivity than NMR, the formation of 2 from 3 is evident at early timepoints. A solution of 3 was prepared in CH3CN and left in ambient light. A UV/Vis/NIR spectrum was obtained every 15 min. The NIR absorption band at 855 nm characteristic of 2 is growing in, while the small hump centered at ˜400 nm characteristic of […] is decreasing. The absorption band at 350 nm is also increasing in intensity.

[2] = Stability of quadricyclane 1 to cysteine and other biological nucleophiles, BSA and cell culture media
Method: 7-acetoxy quadricyclane (1, 2 mg) was dissolved in 0.4 mL of CD3CN. To this solution, 0.4 mL of deuterated PBS and 3 mg of cysteine were added. The NMR spectrum above was taken 2.5 months after the described solution was prepared.

[3] = Stability of 7-acetoxy quadricyclane 1 in PBS (NMR); conditions: room temperature, more than 2 months (NMR taken 2.5 months after preparation, CD3CN/deuterated PBS)
Method: 7-acetoxy quadricyclane (1, 2 mg) was dissolved in 0.4 mL of CD3CN. To this solution, 0.4 mL of deuterated PBS was added. The NMR spectrum above was taken 2.5 months after the described solution was prepared.

[4] = Prevention of photo-degradation of complex 3 by diethyldithiocarbamate (UV/Vis/NIR); conditions: 200 μM 3, 1.25 mM 5, 3:1 CH3CN/H2O, 20 h ambient light
Method: A solution containing 200 μM 3 and 0 (red) or 1.25 (green) mM 5 in 3:1 CH3CN/H2O was prepared and left in ambient light continually. A. UV/Vis/NIR spectra of the described solutions taken before being exposed to light. B. UV/Vis/NIR spectra of the described solutions taken after 20 h of exposure to light. The red line contains little absorbance due to the low solubility of 2 in acetonitrile. If 2 is reduced to the anionic state by cysteine (1.25 mM, blue line) solubility in acetonitrile is improved and evidence of photodegradation can be seen. The diethyldithiocarbamate treated sample remains unaltered after exposure to light indicating no photodegradation occurred.

[5] = Solubility and reactivity of bis(dithiobenzil)nickel(II) 2

CC(=O)OC1C2C=CC1C1C2[S]2=[Ni]3(=[S]1C(c1ccccc1)=C(c1ccccc1)[S]3)[S]C(c1ccccc1)=C2c1ccccc1 (stereo not drawn) [Complex 3]
half-life at 2.9 mg/mL ([1]; NMR, read-out: Calculated half-life of photo-degradation based on all integration data (converted)): 34.8 h
half-life at 2.9 mg/mL ([1]; read-out: Half-life of the light-induced reversion (converted)): ~35 h

CC(=O)OC1C2C3C2C2C1C32 (stereo not drawn) [Compound 1, 7-acetoxy Quadricyclane]
Stability in the presence of bovine serum albumin (BSA) and cell culture media ([2]; conditions emulating metabolic labeling experiments): stable
Reactivity with sugars, oxidants and free amino acids, most notably cysteine ([2]; cysteine: CD3CN/deuterated PBS, NMR after 2.5 months): stable; also recorded: unreactive
Stability in phosphate buffered saline (PBS, pH 7.4) [3]: stable; also recorded: no degradation observed

CCN(CC)C(=S)S [Compound 5, diethyldithiocarbamate]
Effect on photo-degradation of complex 3 [4]: prevented

S=C(C(=S)c1ccccc1)c1ccccc1.S=C(C(=S)c1ccccc1)c1ccccc1.[Ni] [Compound 2, Bis(dithiobenzil)nickel(II)]
Solubility in acetonitrile ([5]; acetonitrile): low
Reactivity with a variety of nucleophiles ([5]; in dichloromethane): unreactive
Solubility in polar solvents ([5]; polar solvents): limited
